Like-named read-outs stand apart in the source and are kept apart here.
Key:
[1] = HMF distribution between organic extraction solvent and aqueous phase; assay type: physicochemical; details: B(OH)3 and NaCl, organic:aqueous 4:1, 150° C.
Procedure: An aqueous solution containing 30 wt % fructose (3 mL, 5.7 mmol) was mounted in an Ace vial pressure tube (stable to ˜20 Bar) and solid B(OH)3 (0.3 g, 5 mmol) and NaCl (0.15 g, 3 mmol) were added to the solution. Different organic extraction solvent were added resulting in a organic:aqueous volume ratio of 4:1. The tube with the reaction mixture was placed in a preheated oil bath for a specified time under magnetic stirring (420 rpm) at a 150° C. (reaction times were measured after a stable oil bath temperature had been reached). After the reaction, the tube was removed from the oil bath and cooled to room temperature before a sample was taken for analysis. A sample of the reaction mixture was collected and filtered through a syringe filter (0.45 μm PTFE), mixed with an internal standard (i-PrOH) and analyzed via HPLC.
The R value indicated in table 10 is the HMF distribution obtained between the MIBK phase and the aqueous phase, i.e. [HMF]MIBK/[HMF]aq.

[2] = HMF distribution between MIBK phase and aqueous phase with different salts and boric acid; assay type: physicochemical; details: 30 wt % fructose, B(OH)3 0.3 g and salt 3 mmol (anion) in 3 mL, MIBK:aqueous 4:1, 150° C. 45 min
Procedure: An aqueous solution containing 30 wt % fructose (3 mL, 5.7 mmol) was mounted in an Ace vial pressure tube (stable to ˜20 Bar) and solid B(OH)3 (0.3 g, 5 mmol) and solid salt (3 mmol with respect to the anion) were added to the solution. MIBK was added as extraction solvent so that an organic:aqueous volume ratio of 4:1 was obtained. The tube with the reaction mixture was placed in a preheated oil bath for a specified time under magnetic stirring (420 rpm) at a 150° C. for 45 min (reaction times were measured after a stable oil bath temperature had been reached). After the reaction, the tube was removed from the oil bath and cooled to room temperature before a sample was taken for analysis. A sample of the reaction mixture was collected and filtered through a syringe filter (0.45 μm PTFE), mixed with an internal standard (i-PrOH) and analyzed via HPLC.
The R value indicated in table 9 is the HMF distribution obtained between the MIBK phase and the aqueous phase, i.e. [HMF]MIBK/[HMF]aq

[3] = target: immobilized glucose isomerase (Sweetzyme™) (Streptomyces murinus, UniProt P37031); details: for glucose isomerase performance at high salt concentration: as shown in example 12; for stability of Sweetzyme™ in the presence of the salt: conclusion of example 12
Sequence of immobilized glucose isomerase (Sweetzyme™) (P37031 whole entry): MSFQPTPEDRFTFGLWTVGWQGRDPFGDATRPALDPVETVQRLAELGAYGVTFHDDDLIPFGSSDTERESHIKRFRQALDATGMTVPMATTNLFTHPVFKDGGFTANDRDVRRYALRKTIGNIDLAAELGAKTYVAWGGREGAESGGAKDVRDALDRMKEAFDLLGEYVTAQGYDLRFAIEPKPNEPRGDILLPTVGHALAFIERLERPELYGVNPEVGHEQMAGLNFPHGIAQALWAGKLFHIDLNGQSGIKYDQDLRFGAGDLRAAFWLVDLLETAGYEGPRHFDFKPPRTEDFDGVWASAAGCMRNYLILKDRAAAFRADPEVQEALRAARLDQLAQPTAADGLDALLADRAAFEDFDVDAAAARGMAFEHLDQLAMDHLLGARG
Procedure: 3 gram immobilized glucose isomerase (Sweetzyme™) was loaded in a lab-scale column heated to 60° C. and a substrate flow of 50 gram/hour was applied. […] Samples were collected on a regular basis for HPLC analysis and the enzyme activity was calculated according to the following equation (Jorgensen, O. B., et al., Starch-Starke, 1988. 40(8), 307-313):
[formula] where: A: specific activity of immobilized enzyme (micromol/min/g enzyme) (IGIU/g: Immobilized Glucose Isomerase Units/g) 0.926: unit conversion factor Fw: Flow rate of syrup (g/h) w: Weight of enzyme (g) DP1: Inlet % of (glucose+fructose) in dry substance (100 at analytical conditions) DS: Dry substance content (%) X: Conversion=outlet % fructose/DP1 Xi: inlet % fructose/DP1 Xe: X at equilibrium (0.51 at 60° C.) DP1, Xi and Xe were assumed constant with following values: DP1: 99.7 Xi: 0 Xe: 0.5078

[4] = 30 wt % fructose, time not given

SMILES: CC(=O)CC(C)C [MIBK, methyl-isobutylketone]
- R-value [1, 4]: 1.0

SMILES: [Cl-].[Na+] [NaCl, sodium chloride]
- R value (MIBK:aq) [2]: 1.0
- Activity ([3]; 50 g/l NaCl, time 19.25 h): 431.74 IGIU/g
- Activity ([3]; 50 g/l NaCl, time 47.25 h): 438.80 IGIU/g
- Activity ([3]; 50 g/l NaCl, time 67.75 h): 438.50 IGIU/g
- Activity ([3]; 50 g/l NaCl, time 139.75 h): 425.49 IGIU/g
- Activity ([3]; 50 g/l NaCl, time 164.58 h): 471.33 IGIU/g
- Activity ([3]; 50 g/l NaCl, time 188.58 h): 469.46 IGIU/g
- Activity ([3]; 50 g/l NaCl, time 212.58 h): 451.52 IGIU/g
- Activity ([3]; 50 g/l NaCl, time 234.92 h): 468.84 IGIU/g
- Activity ([3]; 50 g/l NaCl, time 310.33 h): 466.38 IGIU/g
- Activity ([3]; 50 g/l NaCl, time 332.50 h): 468.14 IGIU/g
- Activity ([3]; 50 g/l NaCl, time 379.92 h): 449.12 IGIU/g
- Activity ([3]; 50 g/l NaCl, time 475.50 h): 446.72 IGIU/g
- Activity ([3]; 50 g/l NaCl, time 499.42 h): 445.83 IGIU/g
- Activity ([3]; 50 g/l NaCl, time 523.33 h): 439.69 IGIU/g
- Activity ([3]; 50 g/l NaCl, time 548.42 h): 436.34 IGIU/g
- Activity ([3]; 50 g/l NaCl, time 570.25 h): 436.11 IGIU/g
- Activity ([3]; 50 g/l NaCl, time 643.00 h): 446.01 IGIU/g
- Activity ([3]; 50 g/l NaCl, time 670.75 h): 435.86 IGIU/g
- glucose isomerase performance at high salt concentration [3]: further stabilised
- stability of Sweetzyme™ in the presence of the salt [3]: good stability

SMILES: O=[N+]([O-])[O-].[K+] [KNO3, potassium nitrate]
- R value (MIBK:aq) [2]: 0.8

SMILES: [Br-].[K+] [KBr, potassium bromide]
- R value (MIBK:aq) [2]: 0.9

SMILES: [Cl-].[K+] [KCl, potassium chloride]
- R value (MIBK:aq) [2]: 1.0
- Activity ([3]; Column 4: 63.78 g/l KCl, time 18.17 h): 398.12 IGIU/g
- Activity ([3]; Column 4: 63.78 g/l KCl, time 46.17 h): 410.62 IGIU/g
- Activity ([3]; Column 4: 63.78 g/l KCl, time 66.67 h): 411.97 IGIU/g
- Activity ([3]; Column 4: 63.78 g/l KCl, time 138.67 h): 415.42 IGIU/g
- Activity ([3]; Column 4: 63.78 g/l KCl, time 163.50 h): 429.63 IGIU/g
- Activity ([3]; Column 4: 63.78 g/l KCl, time 211.50 h): 448.90 IGIU/g
- Activity ([3]; Column 4: 63.78 g/l KCl, time 233.83 h): 469.08 IGIU/g
- Activity ([3]; Column 4: 63.78 g/l KCl, time 309.25 h): 468.47 IGIU/g
- Activity ([3]; Column 4: 63.78 g/l KCl, time 331.42 h): 469.21 IGIU/g
- Activity ([3]; Column 4: 63.78 g/l KCl, time 378.83 h): 443.80 IGIU/g
- Activity ([3]; Column 4: 63.78 g/l KCl, time 474.42 h): 430.17 IGIU/g
- Activity ([3]; Column 4: 63.78 g/l KCl, time 498.33 h): 428.76 IGIU/g
- Activity ([3]; Column 4: 63.78 g/l KCl, time 522.25 h): 418.17 IGIU/g
- Activity ([3]; Column 4: 63.78 g/l KCl, time 547.33 h): 437.40 IGIU/g
- Activity ([3]; Column 4: 63.78 g/l KCl, time 569.17 h): 438.97 IGIU/g
- Activity ([3]; Column 4: 63.78 g/l KCl, time 641.92 h): 455.49 IGIU/g
- Activity ([3]; Column 4: 63.78 g/l KCl, time 669.67 h): 426.01 IGIU/g
- glucose isomerase performance at high salt concentration [3]: comparable with a normal glucose substrate
- stability of Sweetzyme™ in the presence of the salt [3]: good stability

SMILES: CCC(C)O (stereo not shown) [2-BuOH, 2-butanol]
- R-value [1, 4]: 2.3

SMILES: O=S(=O)([O-])[O-].[Na+].[Na+] [Na2SO4, sodium sulphate]
- R value (MIBK:aq) [2]: 1.7
- Activity ([3]; Column 5: 61.08 g/l Na2SO4, time 17.83 h): 418.97 IGIU/g
- Activity ([3]; Column 5: 61.08 g/l Na2SO4, time 45.83 h): 433.23 IGIU/g
- Activity ([3]; Column 5: 61.08 g/l Na2SO4, time 66.33 h): 432.90 IGIU/g
- Activity ([3]; Column 5: 61.08 g/l Na2SO4, time 138.33 h): 427.76 IGIU/g
- Activity ([3]; Column 5: 61.08 g/l Na2SO4, time 163.17 h): 439.97 IGIU/g
- Activity ([3]; Column 5: 61.08 g/l Na2SO4, time 187.17 h): 449.17 IGIU/g
- Activity ([3]; Column 5: 61.08 g/l Na2SO4, time 211.17 h): 437.81 IGIU/g
- Activity ([3]; Column 5: 61.08 g/l Na2SO4, time 233.50 h): 449.65 IGIU/g
- Activity ([3]; Column 5: 61.08 g/l Na2SO4, time 308.92 h): 437.45 IGIU/g
- Activity ([3]; Column 5: 61.08 g/l Na2SO4, time 331.08 h): 437.38 IGIU/g
- Activity ([3]; Column 5: 61.08 g/l Na2SO4, time 378.50 h): 429.47 IGIU/g
- Activity ([3]; Column 5: 61.08 g/l Na2SO4, time 474.08 h): 381.79 IGIU/g
- Activity ([3]; Column 5: 61.08 g/l Na2SO4, time 498.00 h): 387.83 IGIU/g
- Activity ([3]; Column 5: 61.08 g/l Na2SO4, time 521.92 h): 382.13 IGIU/g
- Activity ([3]; Column 5: 61.08 g/l Na2SO4, time 547.00 h): 394.91 IGIU/g
- Activity ([3]; Column 5: 61.08 g/l Na2SO4, time 568.83 h): 393.80 IGIU/g
- Activity ([3]; Column 5: 61.08 g/l Na2SO4, time 641.58 h): 376.25 IGIU/g
- Activity ([3]; Column 5: 61.08 g/l Na2SO4, time 669.33 h): 370.35 IGIU/g
- glucose isomerase performance at high salt concentration [3]: comparable with a normal glucose substrate
- stability of Sweetzyme™ in the presence of the salt [3]: good stability

SMILES: [Cl-].[Li+] [LiCl, lithium chloride]
- R value (MIBK:aq) [2]: 1.1

SMILES: O=S(=O)([O-])[O-].[Mg+2] [MgSO4, Magnesium sulfate]
- Activity ([3]; Column 6: 102.98 g/l MgSO4, time 17.50 h): 412.41 IGIU/g
- Activity ([3]; Column 6: 102.98 g/l MgSO4, time 45.50 h): 420.62 IGIU/g
- Activity ([3]; Column 6: 102.98 g/l MgSO4, time 66.00 h): 419.46 IGIU/g
- Activity ([3]; Column 6: 102.98 g/l MgSO4, time 138.00 h): 428.95 IGIU/g
- Activity ([3]; Column 6: 102.98 g/l MgSO4, time 162.83 h): 436.79 IGIU/g
- Activity ([3]; Column 6: 102.98 g/l MgSO4, time 186.83 h): 452.92 IGIU/g
- Activity ([3]; Column 6: 102.98 g/l MgSO4, time 210.83 h): 465.04 IGIU/g
- Activity ([3]; Column 6: 102.98 g/l MgSO4, time 233.17 h): 424.51 IGIU/g
- Activity ([3]; Column 6: 102.98 g/l MgSO4, time 308.58 h): 370.47 IGIU/g
- Activity ([3]; Column 6: 102.98 g/l MgSO4, time 330.75 h): 366.35 IGIU/g
- Activity ([3]; Column 6: 102.98 g/l MgSO4, time 378.17 h): 324.95 IGIU/g
- Activity ([3]; Column 6: 102.98 g/l MgSO4, time 473.75 h): 306.53 IGIU/g
- Activity ([3]; Column 6: 102.98 g/l MgSO4, time 497.67 h): 298.41 IGIU/g
- Activity ([3]; Column 6: 102.98 g/l MgSO4, time 521.58 h): 299.60 IGIU/g
- Activity ([3]; Column 6: 102.98 g/l MgSO4, time 568.50 h): 310.87 IGIU/g

SMILES: [Cl-].[Cl-].[Mg+2] [MgCl]
- R value (MIBK:aq) [2]: 1.1

SMILES: O=S(=O)([O-])[O-].[K+].[K+] [K2SO4, potassium sulphate]
- R value (MIBK:aq) [2]: 1.5

SMILES: C1CCOC1 [THF, tetrahydrofuran]
- R-value [1, 4]: 3.2
- R-value ([1]; 60 min): 3.7
- R-value ([1]; 75 min): 3.6

SMILES: [Br-].[Li+] [LiBr, lithium bromide]
- R value (MIBK:aq) [2]: 1.0

SMILES: O=[N+]([O-])[O-].[Na+] [NaNO3, sodium nitrate]
- R value (MIBK:aq) [2]: 0.9

SMILES: O=[N+]([O-])[O-].[Li+] [LiNO3, lithium nitrate]
- R value (MIBK:aq) [2]: 0.9

SMILES: [Br-].[Na+] [NaBr, sodium bromide]
- R value (MIBK:aq) [2]: 0.9

SMILES: [I-].[K+] [KI, potassium iodine]
- R value (MIBK:aq) [2]: 0.7

SMILES: [Cl][Al]([Cl])[Cl] [AlCl3, aluminum chloride]
- R value (MIBK:aq) [2]: 1.1

SMILES: [Cl][Fe]([Cl])[Cl] [FeCl3]
- R value (MIBK:aq) [2]: 1.1
